Source: patent publication US8859549B2, “Potassium channel modulators” (AbbVie, Inc., priority 2011, dated 2014)
pEC50: −log10 of the molar value.

Experiments:
[1] = target: T1, KCNQ 2/3 channels (Homo sapiens, UniProt O43525+O43526); experiment: KCNQ 2/3 channel activation, thallium flux FLIPR assay (BTC-AM dye); format: cell-based; details: for Emax: HEK293, maximum response relative to the response of 10 μM retigabine (set at 100%), HEK293 KCNQ2/KCNQ3 cells, read-out: % MAX; for pEC50: HEK293 cells stably expressing human KCNQ2 and KCNQ3 subunits, thallium-induced fluorescence, 4 min compound incubation
T1 construct: expressed in transfected cells; host or cells: HEK293
Method in brief: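 HEK293 cells stably expressing human KCNQ2/KCNQ3 were loaded with BTC-AM (3 μg/mL, 2 h, RT) and preincubated with compound for 4 min in pH 7.3 gluconate buffer containing 0.1 mM ouabain. Flux was triggered by 6 mM TlNO3/10 mM K2SO4 and read for 3 min; EC50 came from summed responses over basal, with maximum relative to 10 μM retigabine (100%).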

[2] = test system: Sprague-Dawley rats; experiment: Spinal Nerve Ligation (SNL) model of neuropathic pain, tactile allodynia; format: in vivo, rat; details: about 30 mg/kg i.p., 30 minutes or more before testing
From the text: Adult male Sprague-Dawley rats (250-300 g body weight, Charles River Laboratories, Portage, Mich.) were used. Animal handling and experimental protocols were approved by the Institutional Animal Care and Use Committee (IACUC) at Abbott Laboratories. For all surgical procedures, animals were maintained under isoflurane anesthesia (4-5% to induce, 1-3% to maintain), and the incision sites were sterilized using a 10% povidone-iodine solution prior to and after surgeries.
Tactile (mechanical) allodynia was measured using calibrated von Frey filaments (Stoelting, Wood Dale, Ill.) as described in Chaplan, S. R., F. W. Bach, J. M. Pogrel, J. M. Chung and T. L. Yaksh, 1994, Quantitative assessment of tactile allodynia in the rat paw, J. Neurosci. Methods, 53, 55. Rats were placed into inverted individual plastic containers (20×12.5×20 cm) on top of a suspended wire mesh grid, and acclimated to the test chambers for 20 minutes. The von Frey filaments were presented perpendicularly to the plantar surface of the selected hind paw, and then held in this position for approximately 8 sec with enough force to cause a slight bend in the filament. Positive responses included an abrupt withdrawal of the hind paw from the stimulus, or flinching behavior immediately following removal of the stimulus. A 50% withdrawal threshold was determined using an up-down procedure (Dixon, W. J., 1980, Efficient analysis of experimental observations, Ann. Rev. Pharmacol. Toxicol., 20, 441). […] Tactile allodynia thresholds were also assessed in several control groups, including naive, sham-operated, and saline infused animals as well as in the contralateral paws of nerve-injured rats. To evaluate the anti-nociceptive effects, animals were administered vehicle or test compound and tactile allodynia was assessed 30 minutes after i.p. administration.
A model of spinal nerve ligation-induced (SNL model) neuropathic pain as originally described by Kim and Chung (Kim, S. H. and J. M. Chung, 1992, Pain 50, 355) was used to test a compound of the present application The left L5 and L6 spinal nerves of the rat were isolated adjacent to the vertebral column and tightly ligated with a 5-0 silk suture distal to the DRG, and care taken to avoid injury of the L4 spinal nerve. The same procedure was performed on Sham rats, but without nerve ligation. All animals were allowed to recover for at least one week and not more than three weeks prior to assessment of tactile allodynia.
Compounds were injected (i.p) 30 minutes or more before testing.

| Structure (SMILES) | Emax [1] [%] | pEC50 [1] | change in paw withdrawal latency versus vehicle [2] |
| --- | --- | --- | --- |
| O=C(Cc1cc(F)cc(F)c1)Nn1nc(S(=O)(=O)c2ccccc2)c2ccccc2c1=O [Example 68, 2-(3,5-difluorophenyl)-N-[1-oxo-4-(phenylsulfonyl)phthalazin-2(1H)-yl]acetamide] | 79.9 | 7.16 | statistically significant change |
| C[C@@H]1CN(c2nn(NC(=O)Cc3ccc(Cl)cc3)c(=O)c3ccccc23)C[C@H](C)O1 [Example 81, 2-(4-chlorophenyl)-N-{4-[cis-2,6-dimethylmorpholin-4-yl]-1-oxophthalazin-2(1H)-yl}acetamide] | 85.1 | 6.18 | statistically significant change |
| CC(C)(C)OC(=O)NCc1nn(NC(=O)Cc2ccc(Cl)cc2)c(=O)c2ccccc12 [Example 41, tert-butyl[(3-{[(4-chlorophenyl)acetyl]amino}-4-oxo-3,4-dihydrophthalazin-1-yl)methyl]carbamate] | 90.3 | 6.01 | statistically significant change |
| O=C(Cc1ccc(Cl)cc1)Nn1nc(S(=O)(=O)c2ccccc2)c2ccccc2c1=O [Example 69, 2-(4-chlorophenyl)-N-[1-oxo-4-(phenylsulfonyl)phthalazin-2(1H)-yl]acetamide] | 118 | 7.39 | statistically significant change |
| O=C(Cc1ccc(Cl)cc1)Nn1nc(Sc2ccc(Br)cc2)c2ccccc2c1=O [Example 195, N-{4-[(4-bromophenyl)sulfanyl]-1-oxophthalazin-2(1H)-yl}-2-(4-chlorophenyl)acetamide] | 96.9 | 6.36 |  |
| CN1CCN(c2nn(NC(=O)Cc3ccc(Cl)cc3)c(=O)c3ccccc23)CC1 [Example 107, 2-(4-chlorophenyl)-N-[4-(4-methylpiperazin-1-yl)-1-oxophthalazin-2(1H)-yl]acetamide] | 24.3 |  |  |
| COc1cccc(CC(=O)Nn2nc(S(=O)(=O)c3ccccc3)c3ccccc3c2=O)c1 [Example 205, 2-(3-methoxyphenyl)-N-[1-oxo-4-(phenylsulfonyl)phthalazin-2(1H)-yl]acetamide] | 71.8 | 6.03 |  |
| O=C(Cc1ccc(Cl)cc1)Nn1nc(S(=O)(=O)c2cc[n+]([O-])cc2)c2ccccc2c1=O [Example 196, 2-(4-chlorophenyl)-N-{4-[(1-oxidopyridin-4-yl)sulfonyl]-1-oxophthalazin-2(1H)-yl}acetamide] | 16.6 |  |  |

More lines, main results first:

| Emax [1] [%] | pEC50 [1] | Structure (SMILES) | change in paw withdrawal latency versus vehicle [2] |
| --- | --- | --- | --- |
| 149 | 6.84 | O=C(CC1CC2CCC1C2)Nn1nc(-c2ccc(C(F)(F)F)nc2)c2ccccc2c1=O (racemic) [Example 43, (±)-2-[(exo)-bicyclo[2.2.1]hept-2-yl]-N-{1-oxo-4-[6-(trifluoromethyl)pyridin-3-yl]phthalazin-2(1H)-yl}acetamide] | statistically significant change |
| 127 | 6.90 | O=C(CC1CC2CCC1C2)Nn1nc(-c2ccnc(C(F)(F)F)c2)c2ccccc2c1=O (racemic) [Example 76, (±)-2-[(exo)-bicyclo[2.2.1]hept-2-yl]-N-{1-oxo-4-[2-(trifluoromethyl)pyridin-4-yl]phthalazin-2(1H)-yl}acetamide] | statistically significant change |
| 13.4 |  | O=C(CC1CC2CCC1C2)Nn1nc(-c2ccnc(O)c2)c2ccccc2c1=O (racemic) [Example 46, (±)-2-[(exo)-bicyclo[2.2.1]hept-2-yl]-N-[4-(2-hydroxypyridin-4-yl)-1-oxophthalazin-2(1H)-yl]acetamide] |  |
| 136 | 6.70 | O=C(Cc1ccc(Cl)cc1)Nn1nc(N2CCCC2)c2ccccc2c1=O [Example 21, 2-(4-chlorophenyl)-N-[1-oxo-4-(pyrrolidin-1-yl)phthalazin-2(1H)-yl]acetamide] |  |
| 72 | 5.28 | Cc1ccc(CC(=O)Nn2nc(N3CCOCC3)c3ccccc3c2=O)cc1 [Example 141, 2-(4-methylphenyl)-N-[4-(morpholin-4-yl)-1-oxophthalazin-2(1H)-yl]acetamide] |  |
| 3.72 |  | O=C(O)Cc1nn(NC(=O)Cc2ccc(Cl)cc2)c(=O)c2ccccc12 [Example 114, (3-{[(4-chlorophenyl)acetyl]amino}-4-oxo-3,4-dihydrophthalazin-1-yl)acetic acid] |  |
| 149 | 5.86 | O=C(CC1CC2CCC1C2)Nn1nc(C(=O)O)c2ccccc2c1=O (racemic) [Example 55, (±)-3-{[(exo)-bicyclo[2.2.1]hept-2-ylacetyl]amino}-4-oxo-3,4-dihydrophthalazine-1-carboxylic acid] |  |
